This note sets out measurements from patent publication US10822325B2, “Human GLUT5 specific inhibitors and methods of treatment” (UNM RAINFOREST INNOVATIONS, priority 2015, dated 2020).

The target of this test is T1, GlcPSe,F348H (Staphylococcus epidermidis, UniProt A0A0H2VG78, F348H).
T1 construct: made in house; host or cells: Escherichia coli JM1100 (pBAD); right-side-out membrane vesicles
Briefly: Glucose uptake by GlcPSe,F348H mutant in right-side-out vesicles of JM1100 E. coli cells. In kind it is biochemical, bacterial. Particulars: for effect on GlcPSe,F348H glucose transport: 2 mM compound, RSO vesicles. How it is done: Glucose transport assay for GlcPSe, wild-type and F348H mutant, was performed as described previouslyl^16. GlcPSe was cloned into the pBAD vector (Invitrogen) with C-terminal 6×His tag. F348H mutation was done with the site-directed mutagenesis method^37. GlcPSe proteins were expressed in the glucose transporter deficient Escherichia coli strain JM1100. Cells were grown at 37° C., in Luria Broth medium, with 100 μg/mL ampicillin. Protein expression was induced with 0.3 mM L-arabinose at O.D.600 nm 0.6. After 3 hours, cells were harvested by centrifugation at 2,500 g for 5 min. The right-side-out (RSO) membrane vesicles of JM1100 E. coli cells were prepared as described previouslyl^16,39,40. Transport assay was initiated by the addition of ^14C-radiolabeled glucose (Moravek Biochemicals) to 50 μL RSO vesicles in 100 mM KPi buffer pH 7.5, at O.D.600 nm of 2.0. After one minute, the transport was stopped and the radioactivity was measured as described below. When inhibitors were used, they were incubated with RSO vesicles 1 minute before transport initiation.
As MSNBA seemed to be specific for GLUT5, we focused on the residues in the MSNBA predicted binding site that were different from GLUT5 compared to GLUT1-4 and GlcPSe. Among these, H387 of GLUT5 potentially interacts with the […] group of MSNBA (FIG. 4b and FIG. 6), but is a Phe in GLUT1-4 as well as GlcPSe (FIG. 4c). To test if this residue is important for MSNBA inhibition, we constructed and expressed three mutant proteins: GlcPSe,F348H, GLUT1F379H, and GLUT5H387F. As with the wild-type proteins, GLUT1F379H and GLUT5H387F were recombinantly produced in insect cells, purified and reconstituted in proteoliposomes. Their transport activity was assayed by the entrance counter-flow method in proteolipsomes. Glucose transport of GlcPSe,F348H was determined in JM1100 E. coli cells in right-side-out (RSO) vesicles.

One may read the inhibition as how much of the control response was suppressed.

T1 sequence (A0A0H2VG78 whole entry F348H): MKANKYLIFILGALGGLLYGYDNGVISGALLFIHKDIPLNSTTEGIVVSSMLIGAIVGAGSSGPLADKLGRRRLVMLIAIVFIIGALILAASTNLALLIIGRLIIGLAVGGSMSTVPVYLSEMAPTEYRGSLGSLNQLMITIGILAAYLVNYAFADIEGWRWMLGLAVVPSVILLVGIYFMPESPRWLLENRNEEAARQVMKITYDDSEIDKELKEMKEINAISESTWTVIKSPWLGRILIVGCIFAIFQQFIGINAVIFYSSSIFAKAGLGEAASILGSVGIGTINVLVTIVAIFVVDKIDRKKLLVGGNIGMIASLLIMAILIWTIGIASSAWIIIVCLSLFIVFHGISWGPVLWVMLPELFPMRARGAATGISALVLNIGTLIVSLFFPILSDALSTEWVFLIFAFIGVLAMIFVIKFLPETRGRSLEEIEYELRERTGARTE

Take `CS(=O)(=O)c1ccc(Nc2ccc3c(c2)OCO3)c([N+](=O)[O-])c1` [MSNBA, N-[4-(methylsulfonyl)-2-nitrophenyl]-1,3-benzodioxol-5-amine]: for the setting “read-out: inhibition of GlcPSe,F348H transport activity”, the inhibition at 2000 µM stood at 75%. Regarding `C=C1[C@@H](C)[C@H]2[C@H](Cc3ccccc3)NC(=O)[C@]23OC(=O)/C=C/[C@H](O)CCC[C@@H](C)C/C=C/[C@H]3[C@@H]1O` [cytochalasin B, reference compound], the “effect on GlcPSe,F348H glucose transport” value is recorded as “decreased cytochalasin B inhibition”. Same read-out and setting: in the case of `O=C(CCc1ccc(O)cc1)c1c(O)cc(O)cc1O` [phloretin, reference compound] it was “still inhibited”.
